Measured values reported in publication PMC12301304 (Frontiers in Pharmacology, 2025).
Read-outs that look alike come from different tables or passages of the source.

What was measured:
[1] = molecular target: T1, CYP3a1 (Rattus norvegicus, UniProt P04800)
T1 sequence (P04800 1-504): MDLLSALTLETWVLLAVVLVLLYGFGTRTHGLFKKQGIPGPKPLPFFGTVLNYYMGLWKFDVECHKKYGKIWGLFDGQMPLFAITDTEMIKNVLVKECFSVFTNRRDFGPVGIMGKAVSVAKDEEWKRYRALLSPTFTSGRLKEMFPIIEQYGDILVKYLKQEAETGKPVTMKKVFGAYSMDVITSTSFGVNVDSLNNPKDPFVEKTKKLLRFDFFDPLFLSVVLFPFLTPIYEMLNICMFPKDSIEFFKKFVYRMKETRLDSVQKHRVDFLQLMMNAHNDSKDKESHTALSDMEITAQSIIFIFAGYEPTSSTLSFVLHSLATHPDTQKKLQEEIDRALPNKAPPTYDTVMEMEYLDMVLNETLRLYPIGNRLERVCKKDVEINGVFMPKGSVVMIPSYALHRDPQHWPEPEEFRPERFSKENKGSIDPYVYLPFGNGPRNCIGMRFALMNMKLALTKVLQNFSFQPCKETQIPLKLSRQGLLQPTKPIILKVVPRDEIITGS
Method: (§1) The effect of the Zhicaowu–Hezi combination on CYP450 enzymes in RLM was evaluated by assessing the metabolic clearance rates of theophylline, metoprolol, bupropion, mephenytoin (CYP2c13), chlorzoxazone, testosterone, and diclofenac.
(§2) On day 15, the rats were humanely euthanized, and liver tissues were excised for microsomal preparation. […] Livers from each group were repeatedly washed with ice-cold phosphate buffered saline (PBS). […] Subsequently, they were blotted dry with filter paper, weighed, and homogenized by adding 4 mL of ice-cold PBS per gram of liver tissue. The mixture was homogenized in an ice bath. The liver homogenate was subjected to centrifugation at 10,000 RPM for 20 min at 4°C. The resulting supernatant was then combined with an ice-cold 88-mmol/L CaCl2 solution at a 1:1 ratio, and the mixture was homogenized in an ice bath for 5 min. The resulting solution was then centrifuged at 25,000 × g for 30 min at 4°C. The supernatant was discarded and the precipitate was repeatedly resuspended in PBS–20% glycerol buffer. The precipitate was then stored in a separate bottle at −80°C for backup. The protein concentration of the prepared RLM was determined using a bicinchoninic acid protein assay kit.
(§3) Preincubation was conducted for 5 min in a water bath at 37°C, after which NADPH (1 mmol/L) was added, and incubation continued for 30 min at 37°C. Once the incubation period elapsed, the reaction was terminated by the addition of an ice-cold IS-containing acetonitrile solution. The samples were vortexed for 2 min and centrifuged at 15,000 RPM for 10 min. The resulting supernatant was filtered through a 0.22-μm organic microporous membrane, and 20 μL of the filtered solution was injected into the HPLC assay. To prevent the organic solvents from inducing or inhibiting the enzyme, the volume fraction of organic solvents in the entire incubation system was maintained at 1%. […] The inhibitor group was added with corresponding inhibitor, while all other procedures remained identical.

[2] = molecular target: T2, CYP1a2 (Rattus norvegicus, UniProt P04799); conditions: microsomes
T2 sequence (P04799 1-513): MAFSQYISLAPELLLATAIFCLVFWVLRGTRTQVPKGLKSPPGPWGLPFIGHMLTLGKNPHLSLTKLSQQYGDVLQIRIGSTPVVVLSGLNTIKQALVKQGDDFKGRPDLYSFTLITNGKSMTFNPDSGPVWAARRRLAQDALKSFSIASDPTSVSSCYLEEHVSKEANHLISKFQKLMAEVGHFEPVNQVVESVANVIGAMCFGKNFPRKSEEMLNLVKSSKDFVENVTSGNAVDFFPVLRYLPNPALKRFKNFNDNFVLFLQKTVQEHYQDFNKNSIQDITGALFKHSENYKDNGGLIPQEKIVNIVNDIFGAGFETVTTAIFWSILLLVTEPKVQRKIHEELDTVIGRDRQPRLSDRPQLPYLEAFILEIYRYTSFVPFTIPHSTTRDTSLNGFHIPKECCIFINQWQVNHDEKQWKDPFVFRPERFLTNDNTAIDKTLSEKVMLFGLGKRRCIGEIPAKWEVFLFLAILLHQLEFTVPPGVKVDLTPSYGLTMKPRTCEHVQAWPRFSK
Method: as §1, §2, §3

[3] = molecular target: T3, CYP2c11 (Rattus norvegicus, UniProt P08683)
T3 sequence (P08683 1-500): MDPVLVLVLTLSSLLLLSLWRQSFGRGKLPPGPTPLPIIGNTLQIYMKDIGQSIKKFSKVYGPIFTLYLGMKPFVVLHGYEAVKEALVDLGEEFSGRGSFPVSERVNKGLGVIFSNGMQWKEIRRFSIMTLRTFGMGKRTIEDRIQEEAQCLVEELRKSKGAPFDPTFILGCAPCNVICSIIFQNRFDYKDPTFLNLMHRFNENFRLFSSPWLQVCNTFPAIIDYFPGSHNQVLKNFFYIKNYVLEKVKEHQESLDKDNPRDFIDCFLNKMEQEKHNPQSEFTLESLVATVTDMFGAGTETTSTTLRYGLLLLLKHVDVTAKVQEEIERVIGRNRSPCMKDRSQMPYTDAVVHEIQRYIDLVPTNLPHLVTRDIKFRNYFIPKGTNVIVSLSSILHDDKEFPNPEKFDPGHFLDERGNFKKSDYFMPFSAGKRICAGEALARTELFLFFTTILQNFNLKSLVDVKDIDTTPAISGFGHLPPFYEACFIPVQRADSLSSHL
Method: as §1, §2, §3

[4] = molecular target: T4, CYP2d2 (Rattus norvegicus, UniProt P10634)
T4 sequence (P10634 1-500): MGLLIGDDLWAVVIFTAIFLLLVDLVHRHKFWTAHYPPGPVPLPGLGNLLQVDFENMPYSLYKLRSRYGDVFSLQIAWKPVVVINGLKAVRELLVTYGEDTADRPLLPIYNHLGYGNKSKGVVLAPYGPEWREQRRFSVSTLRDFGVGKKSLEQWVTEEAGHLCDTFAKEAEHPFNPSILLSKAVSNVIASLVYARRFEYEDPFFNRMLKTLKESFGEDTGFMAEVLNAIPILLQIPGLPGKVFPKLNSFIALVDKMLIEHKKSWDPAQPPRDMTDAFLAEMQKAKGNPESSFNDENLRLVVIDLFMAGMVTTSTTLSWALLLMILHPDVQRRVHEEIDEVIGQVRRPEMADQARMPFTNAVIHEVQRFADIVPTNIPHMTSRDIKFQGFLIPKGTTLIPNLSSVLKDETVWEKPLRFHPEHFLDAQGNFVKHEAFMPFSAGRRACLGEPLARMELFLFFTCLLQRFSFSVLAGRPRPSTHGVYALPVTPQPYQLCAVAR
Method: as §1, §2, §3

Q: What does the source list for `S=P(N1CC1)(N1CC1)N1CC1` [Thiotepa]?
A: CYP3a1 (%) metabolic clearance rate of probe drug [1]: 25.72 ± 2.36%; CYP1a2 (%) metabolic clearance rate of probe drug [2]: 35.91 ± 1.40%; CYP2c11(%) metabolic clearance rate of probe drug [3]: 21.84 ± 2.64%; CYP2d2 (%) metabolic clearance rate of probe drug [4]: 12.67 ± 0.65%

Q: `O=c1cc(-c2ccccc2)oc2c1ccc1ccccc12` [α-naphthoflavone] was tested. Which “CYP3a1 (%) metabolic clearance rate of probe drug” value ([1]; RLM 0.5 mg/mL, 30 min 37°C, inhibitor added, probe testosterone, blank control 25.04 ± 1.93, n = 3) did it give?
A: Its value is 25.69 ± 2.09%.

Q: What about the “CYP1a2 (%) metabolic clearance rate of probe drug” value [2] of the same compound?
A: The value was 28.92 ± 1.91 %.

Q: And the “CYP2c11(%) metabolic clearance rate of probe drug” value ([3]; RLM 0.5 mg/mL, 30 min 37°C, inhibitor added, probe diclofenac, blank control 21.12 ± 3.80, n = 3)?
A: Its value is 23.02 ± 0.55%.

Q: And the “CYP2d2 (%) metabolic clearance rate of probe drug” value ([4]; RLM 0.5 mg/mL, 30 min 37°C, inhibitor added, probe metoprolol, blank control […] ± 2.12, n = 3)?
A: The value was 13.12 ± 0.82%.
